Laboratory results from patent publication US20230295213A1, “CD73 INHIBITORS AND PHARMACEUTICAL USES THEREOF” (RISEN (SUZHOU) PHARMA TECH CO., LTD., priority 2018, published 2023).
Where two headings read alike, the source gives them in different places.

Columns and labels:
[1] = target: CD73 (Homo sapiens (Human), UniProt P21589); assay: CD73 cellular assay (T cell stimulation assay); format: cell-based; settings: human T cells, anti-CD3/CD28 stimulated, AMP + EHNA, 72 hours
Description: Procedures for T cell stimulation assay were the following: Day 1, coating the plate: diluting anti-CD3 to 1 μg/mL with sterile PBS; coating 96 well flat bottom tissue culture plates (Corning #3599) with 50 uL of diluted anti-CD3, centrifuging (1000 rpm) for 1 min; sealing the plate and incubating the plate at 4° C. overnight for antibody crosslinking.
Day 2, human T cell seeding: (a) washing the coated plate (from Day 1) with sterilized PBS buffer (2×100 uL); (b) re-suspending T cells and adjusting cell density to 0.5×10^6 cells/mL with growth media (X-VIVO 15+1% Pen/strep+1% glutamine), and seeding 100 μL/well (50,000 cells/well) in 96-well plates; (c) diluting CD28 antibody for 8x working concentration (8 μg/mL) with growth media, giving 1 μg/mL of the final concentration, followed by addition of CD28 antibody (25 μL) to cell plate; incubating the plates under 5% CO2 at 37° C. for 60 min; (d) adding compound (25 μL, 8x dilution with growth media) to cell plate, and incubating the plates under 5% CO2 at 37° C. for 60 min; (e) adding AMP (25 μL) and EHNA (25 μL, 8x dilution with growth media) to cell plate; (f) incubating the plates under 5% CO2 at 37° C. for 72 hours.
Day 5, collecting cell growth media and testing cell proliferation: (a) centrifuging the cell plate (1,000 rpm) for 5 min; (b) harvesting 150 μL of the cell culture media from each well to 96 well plate, followed by measurement of IFN-r expression by ELISA test; (c) taking a portion of the cell culture supernatant for cytokine analysis, removing the remaining supernatant, followed by addition of fresh growth media (X-VIVO 15+1% Pen/strep+1% glutamine, 100 μL); (d) adding Celltiter-Glo solution (50 μL) into each well for the measurement of cell proliferation by: (e) incubating the plates at room temperature for 10 min on a shaker; (f) transferring 100 μL solution into 96-well white plate and taking the readout of the Celltiter-Glo data using a TECAN Reader.

[2] = Pharmacokinetic evaluation in ICR mice, intravenous; format: in vivo; settings: mouse; ICR male mice, 1.0 mg/kg intravenous, plasma
Description: A test compound (1.0 mg/kg) was administered to fasted ICR male mice via intravenous injection, and blood samples were collected at time points of 0.08, 0.25, 0.5, 1, 2, 4, 6, 8 and 24 h after the administration. Plasma sample was separated by centrifugation (8000 rpm) and stored at −80° C. until the sample was analyzed. Concentrations of the test compound in the plasma were determined by HPLC-MS/MS: the plasma was dispensed into appropriate tubes containing internal standard and methanol or acetonitrile. The tubes were mixed vigorously for 3 minutes to achieve deproteinization and then centrifuged at 8000 rpm for 5 minutes. The supernatant was transferred to an autosampler vial, injected into the chromatographic system, and quantified on MS/MS detector. Pharmacokinetic parameters including AUC0-t, Cmax, Tmax, t1/2, MRT, Cl and Vd were calculated using WinNonlin 6.3 software. Table 3 summarizes key PK parameters for test compounds (AUC(0-t): the area under the curve from time 0 to time t; AUC(0-∞): the area under the curve from time 0 to infinity; t1/2: Half-life; CL: clearance; C0: the concentration of drug in blood if the drug molecules enter the circulation and are distributed immediately (i.e., at time 0)).

[3] = target: Recombinant human 5′-nucleotidase (hCD73) (Homo sapiens (Human), UniProt P21589); assay: CD73 enzyme inhibition assay (hCD73, AMP substrate, PiColorLock Gold phosphate detection); format: biochemical; settings: hCD73 1 nM solution, AMP 60 μM solution, 37° C. 20 min, absorbance 635 nm
Description: Test compound solution preparation: Stock solution of a test compound was prepared in DMSO at 10 mM concentration. A series of preset 10-concentration solutions of a test compound were prepared by diluting the stock solution in 5-fold gradient dilution with DMSO.
Assay buffer (lx): 20 mm Tris, 25 mM NaCl, 1 mM MgCl2, pH 7.5, 0.005% Tween-20 (freshly prepared, and ready for use).
An aliquot of 0.25 μL of compound solution or DMSO (blank control) was added to each test well of a micro well plate. Recombinant human 5′-nucleotidase (hCD73) was diluted to 1 nM in assay buffer; and an aliquot of 25 μL hCD73 (1 nM) solution was added to the corresponding wells of the plate. The contents of the well were well-mixed, and the plate was covered with sealing film, centrifuged at 1000 rpm for 30 sec., followed by incubation at room temperature for 15 min. AMP, the substrate, was diluted to 60 μM concentration in the assay buffer. To each reaction well was added 25 μL of AMP solution. After mixing well, the plate was covered with sealing film, centrifuged at 1000 rpm for 30 sec., and incubated at 37° C. for 20 min. The absorbance signal (end point) was measured on SPARK plate reader at 635 nm (See PiColorLock™ Gold Phosphate Detection System (Abcam) test kit for reference).
The reaction wells containing CD73 enzyme, substrate AMP and DMSO (no compound) were used as positive control, and the reaction wells containing substrate AMP and DMSO but no CD73 enzyme were used as negative control. The percent (%) inhibition at each concentration of compound was calculated based on and relative to the signal in the High and Low control wells contained within each assay plate. The High control wells were considered as 0% inhibition, and the low control wells, which didn't contain any compound but rather DMSO (final concentration=0.5%), as 100% inhibition. IC50 values were obtained using GraphPad Prism software.

[4] = read-out: EC50, CTG (CellTiter-Glo, cell proliferation)
[5] = read-out: EC50, IFN-γ (ELISA, indicator for T-cell activity)

Sequence of CD73 (P21589 27-574): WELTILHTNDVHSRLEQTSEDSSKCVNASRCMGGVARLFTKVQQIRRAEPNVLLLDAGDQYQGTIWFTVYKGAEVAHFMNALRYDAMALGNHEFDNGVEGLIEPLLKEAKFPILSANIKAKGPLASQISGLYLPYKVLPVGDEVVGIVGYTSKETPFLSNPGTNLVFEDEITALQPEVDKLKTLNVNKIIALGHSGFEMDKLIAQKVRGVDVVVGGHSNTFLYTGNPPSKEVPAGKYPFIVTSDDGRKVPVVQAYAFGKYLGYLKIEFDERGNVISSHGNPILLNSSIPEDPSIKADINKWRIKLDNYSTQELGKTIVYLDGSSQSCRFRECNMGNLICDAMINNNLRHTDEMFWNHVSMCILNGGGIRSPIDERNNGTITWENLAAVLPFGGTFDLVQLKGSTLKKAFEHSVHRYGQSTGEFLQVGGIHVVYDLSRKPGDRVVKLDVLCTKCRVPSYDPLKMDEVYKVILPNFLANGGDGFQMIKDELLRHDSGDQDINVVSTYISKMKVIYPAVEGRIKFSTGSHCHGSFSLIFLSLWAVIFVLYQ
Sequence of Recombinant human 5′-nucleotidase (hCD73) (P21589 27-574): as above

EC50 [1, 4] | EC50 [1, 5] | AUC(0-inf) [2] | AUC(0-t) [2] | Cmax [2] | half-life [2] | IC50 [3] | Compound
7.53 nM | 14.2 nM |  |  |  |  |  | O=P(O)(O)CP(=O)(O)OC[C@H]1O[C@@H](n2cnc3c(N4CCC5(CCCCC5)C4)nc(Cl)nc32)C(O)C1O (stereo partly drawn) [Compound b, reference compound]
3.13 nM | 1.45 nM |  |  |  |  |  | O=P(O)(O)CP(=O)(O)OC[C@H]1O[C@@H](n2cnc3c(N4CC5(CCc6ccccc65)C4)nc(Cl)nc32)C(O)C1O (stereo partly drawn) [d-1]
 |  | 7450 ng·h/mL | 7430 ng·h/mL | 12200 ng/mL | 53.9 min | 1.42 nM | O=P(O)(O)CP(=O)(O)OC[C@H]1O[C@@H](n2cnc3c(N4CCC5(CC4)Cc4ccccc4C5)nc(Cl)nc32)[C@@H](O)C1O (stereo partly drawn) [d-21]
4.07 nM | 2.53 nM |  |  |  |  | 1.76 nM | O=P(O)(O)CP(=O)(O)OC[C@H]1O[C@@H](n2cnc3c(N4CCC(c5ccccc5)(c5ccccc5)C4)nc(Cl)nc32)C(O)C1O (stereo partly drawn) [d-33]
